Bridge positions count the residues as written; N and C are the ends. Peptide text beside a SMILES is read from it.
Tests used:
[1] = test system: IL-2 surface receptor CD25 on PBMC; assay: IL-2 surface receptor CD25 expression, FACS; type: cell-based, human; conditions: cyclotides 4 μM, CsA 5 μg/mL, PHA-L; stimulated untreated PBMCs = 100%
Procedure: PBMCs were isolated from blood samples of healthy adults that were provided by the transfusion center of the university hospital in Freiburg (Germany). […] The lymphocyte-enriched layer was transferred into a new vessel and washed three times with PBS and centrifuged again (10 min, twice with 300×g and last time with 800 rpm, 20° C.). For the following experiments, the cells were either stained with CFSE or diluted with medium to 4*10^6 cells/ml. Cells were counted in alight microscope using trypan blue staining and a hemocytometer.
(§1) Following purification, PBMCs were equilibrated for 2 h at 37° C. […] This was followed by washing of each well with 100 μl PBS (centrifugation for 5 min, 1000 rpm, 20° C.) and re-suspending the cells in 100 μl medium for further assays.
Activated cells were transferred into a 96-well plate, centrifuged (5 min, 1000 rpm, 20° C.), washed one time with 100 μl FACS-buffer and stained with CD25 PE for 15 min at 4° C. Then cells were washed twice with FCS-buffer and resuspended in 100 μl FACS-buffer, transferred into FACS vials with a total volume of 250 μl and the expression of IL2 surface receptor CD25 was measured by FACS analysis using a FACSCalibur instrument (BD Biosciences).
Amongst other pathways, T-cell proliferation is determined by binding of the cytokine IL-2 to its cell surface receptor. Therefore the influence of cyclotides on the expression of the IL-2 receptor was tested. […] As control substance CsA was used. […] Treatment with V10A yields 114%±12.5, V10K yields 112%±16.3 and T8K yields 114%±17.3 CD25 surface expression after 24 h as compared to the control (FIG. 11B).

PHA-L-stimulated PBMC = assay: Proliferation of PHA-L-stimulated CFSE-labelled PBMC with or without exogenous IL-2; type: cell-based, human; conditions: cyclotides 4 μM, CsA 5 μg/mL, 3 day culture; for proliferation with exogenous IL-2: IL-2 10 U/mL
Procedure: FIG. 13. Proliferation capacity of cyclotide-treated PBMC in the presence of exogenous IL-2. […] The cells were cultured without exogenous IL-2 (10 U/mL) (A and B) or in the presence of IL-2 (C and D). The CFSE-labelled cells were measured after a 3 day culture period by flow cytometry and representative data are presented in dot plots (A and C). Data are presented as mean and standard deviation (SD) of three independent experiments.
as §1
Purified PBMCs (5*10^6 cells/ml) were incubated with […] of the fluorescent dye CFSE (5-carbofluoreszenein-ciacetat-succinylester) for 10 min at 37° C. The reaction was stopped using medium, cells were washed one time with medium by centrifugation (10 min, 300×g, 20° C.) and diluted with medium to 4*10^6 cells/ml.

[2] = test system: IFN-gamma production of activated PBMCs; assay: IFN-gamma secretion of PBMC, ELISA-based FACS; type: cell-based, human; conditions: for IFN-gamma production as compared to the control, 36 h: 36 h past stimulation
Procedure: FIG. 14. IFN-γ secretion by cyclotide-treated PBMC. […] Untreated cells were used as control. Following 24 h or 36 h of cultivation, the cells were restimulated with PMA/Ionomycin for further 6 hour. The amount of IFN-γ was measured in the supernatant of cultured cells using an ELISA-based flow cytometric method. The data are presented as mean and standard deviation (SD) of three independent experiments.
(§2) Activated cells were resuspended in 50 μl of medium, transferred into a 96-well plate and treated with 10 μg/ml PHA-L. After incubation for 24 h cells were re-stimulated with PMA (50 ng/ml) und ionomycin (500 ng/ml) for 6 h. Next, the cells were transferred into Eppendorf tubes, centrifuged (5 min, 3000 RPM, 20° C.) und 50 μl of the supernatant was again transferred into new tubes and stored at −20° C. Production of cytokines was measured and quantified using the FlowCytomix™ kit according to manufacturer's instructions.
(§3) Therefore it is of interest to determine whether cyclotides only have anti-proliferative effects or also affect the effector function of T-lymphocytes, which would directly relate to changes in the IFN-gamma and TNF-alpha production. Therefore, the production of both cytokines of cyclotide-treated, activated PBMCs at an early time point after PBMC activation was tested.

[3] = test system: TNF-alpha production of activated PBMCs; assay: TNF-alpha secretion of PBMC, ELISA-based FACS; type: cell-based, human; conditions: 24 h + 6 h PMA/ionomycin; T20K 4 μM, CsA 5 μg/mL
Procedure: FIG. 15. […] Untreated cells were used as control. Following 24 h or 36 h of cultivation, the cells were restimulated with PMA/Ionomycin for further 6 hour. […] The data are presented as mean and standard deviation (SD) of three independent experiments.
as §2, §3

[4] = test system: splenic T-cells of naive mouse group; assay: Cytokine release of splenic T-cells of naive EAE mice treated in vitro, ELISA; type: cell-based; conditions: for IL2 release after 48 h incubation: V10K 4 μM, MOG35-55 30 μg/mL
Procedure: FIG. 22. Effect on cytokine release of ex vivo isolated PBMC at day 1 and 2. […] To approve this EAE TH bias towards TH17 and TH1 cells, IL4 release was again analyzed, but this TH2 cytokine was not detectable (I, J), as already indicated in (D).
Spleens of sacrificed mice were taken and transferred into a 6 cm Petri Dish with 5 mL sterile PBS. To receive a spleenocyte suspension, spleens were meshed and filtered through 70 μm nylon sieve. Cells were centrifuged at 1200 rpm for 5 minutes and resuspended in RPMI 1640 media supplemented with 10% fetal calf serum (FCS), 2 mM L-glutamine, penicillin (100 U/mL), and streptomycin (100 μg/mL). Spleenocytes were cultivated at a concentration of 3×10^6/mL in a 48-well flat-bottom plate (500 μL/well). Cells were stimulated with 30 μg/mL MOG35-55 or left untreated and incubated at 37° C. for three days. Supernatants and cells were taken stored at −20° C. until further experiments. […] After 12 hours MOG or T20K was added to appropriate wells. Supernatants were stored after 24 hours and after 48 hours at −20° C.
Supernatants of stimulated spleenocytes were analyzed for their IL2, IL17, INFγ, IL4 and IL22 cytokine release using anti-mouse antibodies for ELISA from eBioscience according to the manufacturer's instructions. The color reaction was evaluated at an optical density of 450 nm by the microplate reader Synergy H4 (BioTek).

| Compound | CD25 expression after 48 h [1] | CD25 surface expression after 24 hours [1] | proliferation with exogenous IL-2 (PHA-L-stimulated PBMC) | proliferation as compared to the control cells, without exogenous IL-2 (PHA-L-stimulated PBMC) | IFN-gamma concentration as compared to the control, 24 h ([2]; 24 h + 6 h PMA/ionomycin, T20K 4 μM, CsA 5 μg/mL) | IFN-gamma production as compared to the control, 36 h [2] | TNF-alpha expression as compared to the control, 24 h [3] | IL17 production after 48 h ([4]; T20K 4 μM) | IL2 inhibition after 24 h ([4]; T20K 4 μM compared with CsA 5 μg/mL) | IL2 release after 48 h incubation ([4]; T20K 4 μM) | INFγ and IL22 cytokine release ([4]; dependent on the cyclotide addition) |
| --- | --- | --- | --- | --- | --- | --- | --- | --- | --- | --- | --- |
| CC(C)C[C@@H]1NC(=O)CNC(=O)[C@H](CC(N)=O)NC(=O)[C@H](CCCNC(=N)N)NC(=O)[C@H]([C@@H](C)O)NC(=O)[C@@H]2CSSC[C@@H]3NC(=O)[C@H]([C@@H](C)O)NC(=O)CNC(=O)CNC(=O)[C@H](C(C)C)NC(=O)[C@@H]4CSSC[C@H](NC(=O)[C@H](CCCCN)NC(=O)[C@H](CSSC[C@H](NC(=O)[C@H](C(C)C)NC(=O)[C@@H]5CCCN5C1=O)C(=O)NCC(=O)N[C@@H](CCC(=O)O)C(=O)N[C@@H]([C@@H](C)O)C(=O)N4)NC(=O)CNC(=O)[C@@H]1CCCN1C(=O)[C@H]([C@@H](C)O)NC(=O)[C@H](CC(N)=O)NC3=O)C(=O)N[C@@H](CO)C(=O)N[C@@H](Cc1c[nH]c3ccccc13)C(=O)N1CCC[C@H]1C(=O)N[C@@H](C(C)C)C(=O)N2 [Kalata T20K] (cyclo(CGETCVGGTCNTPGCKCSWPVCTRNGLPV); disulfide 1-15, 5-17, 10-22 (inferred); ring closure inferred) | 46%±18.2 | 79%±10.1 | 91%±1.4 | 29%±24 | 21%±13.2 | did not induce significant changes in the level of IFN-gamma | 23%±10.6 | inhibited | non-significant to the immune suppressive agent CsA | significantly inhibited | repressed significantly |
| kalata B1 mutant GLPVCGETCKGGTCNTPGCTCSWPVCTRN (SEQ ID No. 10) [Kalata V10K] | no significant change in receptorexpression | 112%±16.3 | did not change the effect on proliferation | no effect on the proliferation | – | did not induce significant changes in the level of IFN-gamma | – | – | – | shows a inhibitory capacity towards IL2 release | – |

— patent publication US10357537B2, “Cyclotides as immunosuppressive agents” (priority 2011, dated 2019)
